Marks after values point to notes of the source that are not given here.
Columns and labels:
[1] = tested on: New Zealand white rabbits; test: Apparent digestibility of nutrients, total collection method; assay type: in vivo; conditions: feces collected 3 d from day 14
Excerpt: The single-factor completely randomized test design is adopted. 36 45-day-old healthy New Zealand white rabbits (male) with the average weight of (1.05±0.04) kg are selected and randomly divided into 3 groups, and each group has 12 replicates with 1 rabbit per replicate. A control group is fed with a basal diet, an L-DNJ group is fed with the basal diet+0.14 g/kg DNJ, and an H-DNJ group is fed with the basal diet+0.28 g/kg DNJ. The diet is uniformly mixed to be prepared into cylindrical particles with the diameter of 6 mm and the length of 1 cm. The preliminary trial period is 14 d, and the trial period is 28 d.
On the 14th day of the test, 8 experimental rabbits with similar weight are randomly selected from each group and transferred to metabolism cages for digestion and metabolism tests. The digestion and metabolism tests are conducted by the total collection method. All fecal samples of the experimental rabbits are collected for 3 consecutive days, and the contents of nutrients in the diet and fecal samples are measured according to the method in the book written by Zhang Liying. The calculation formula is: apparent digestibility of a nutrient (%)=(content of the nutrient in diet−content of the nutrient in feces)/content of the nutrient in diet×100.

[2] = tested on: New Zealand white rabbits; test: Fatty acid composition of rabbit meat by GC/MS; assay type: in vivo; conditions: 28 d
Excerpt: The single-factor completely randomized test design is adopted. 36 45-day-old healthy New Zealand white rabbits (male) with the average weight of (1.05±0.04) kg are selected and randomly divided into 3 groups, and each group has 12 replicates with 1 rabbit per replicate. A control group is fed with a basal diet, an L-DNJ group is fed with the basal diet+0.14 g/kg DNJ, and an H-DNJ group is fed with the basal diet+0.28 g/kg DNJ. The diet is uniformly mixed to be prepared into cylindrical particles with the diameter of 6 mm and the length of 1 cm. The preliminary trial period is 14 d, and the trial period is 28 d. 10 g of meat sample is crushed, total fat is extracted after freeze-drying and converted to fatty acid methyl ester using a mixture of boron trifluoride, hexane and methanol (35:20:45 v/v), and then the fatty acid composition and content are measured with a gas chromatograph-mass spectrometer GC/MS (Model 7890-5975, Agilent Technologies, Inc.) with a 60 m×0.25 mm×0.25 μm capillary column. Gas chromatographic conditions are set as follows: the injector temperature is 220° C., and the detector temperature is 275° C.; and the initial column chamber temperature is 140° C. for 5 min, then increased to 240° C. at a rate of 4° C./min and maintained at 240° C. for 15 min. Finally, the fatty acid is measured with a […]. The ionization energy is 70 eV, the ion source temperature is 200° C., and the scanning range is 50-500 m/z. The retention time of each peak in the chromatogram is compared with that of a mixed standard of 37 fatty acid methyl esters (B25881, Shanghai Yuanye Bio-technology Co., Ltd.) to determine the properties of each peak. Three measurements are made for each sample, and the results are averaged.

[3] = tested on: New Zealand white rabbits; conditions: cited from earlier work
[4] = H-DNJ: basal diet+0.28 g/kg DNJ
[5] = L-DNJ: basal diet+0.14 g/kg DNJ
[6] = Zhong Jingbo et al. 2021, higher additive amount
[7] = high-concentration mulberry leaf DNJ (0.4 g/kg and 2 g/kg), Zhong Jingbo et al., Xie Hui et al.

OC[C@H]1NC[C@H](O)[C@@H](O)[C@@H]1O [DNJ, 1-deoxynojirimycin]
Apparent digestibility of Acid detergent fiber (ADF) [1, 4]: 14.88%
Apparent digestibility of Crude ash [1, 4]: 42.23%
Apparent digestibility of Crude fiber (CF) [1, 4]: 14.56%
Apparent digestibility of Crude protein (CP) [1, 4]: 76.25ª %
Apparent digestibility of Dry matter (DM) [1, 4]: 60.79^b %
Apparent digestibility of Ether extract (EE) [1, 4]: 78.35^b %
Apparent digestibility of Neutral detergent fiber [1, 4]: 20.68%
Apparent digestibility of Acid detergent fiber (ADF) [1, 5]: 12.34%
Apparent digestibility of Crude ash [1, 5]: 43.44%
Apparent digestibility of Crude fiber (CF) [1, 5]: 13.54%
Apparent digestibility of Crude protein (CP) [1, 5]: 75.17^ab %
Apparent digestibility of Dry matter (DM) [1, 5]: 61.35^ab %
Apparent digestibility of Ether extract (EE) [1, 5]: 79.84^ab %
Apparent digestibility of Neutral detergent fiber [1, 5]: 21.02%
MUFA C16:1n7c in rabbit meat [2, 4]: 2.06%
MUFA C16:1n9c in rabbit meat [2, 4]: 0.42%
MUFA C17:1n7c in rabbit meat [2, 4]: 0.21%
MUFA C18:1n9c in rabbit meat [2, 4]: 23.01ª %
MUFA C18:1n9t in rabbit meat [2, 4]: 2.86ª %
MUFA C20:1n9t in rabbit meat [2, 4]: 0.24^a %
Monounsaturated fatty acid (MUFA) total [2, 4]: 27.13%
PUFA C16:3n4c in rabbit meat [2, 4]: 0.19ª %
PUFA C18:2n6c (linoleic acid) in rabbit meat [2, 4]: 31.77ª %
PUFA C20:2n6c in rabbit meat [2, 4]: 0.57^ab %
PUFA C20:3n6c in rabbit meat [2, 4]: 0.43%
PUFA C20:4n6c (arachidonic acid) in rabbit meat [2, 4]: 2.67ª %
PUFA C22:4n6c in rabbit meat [2, 4]: 0.31%
PUFA C22:5n6c (DPA) in rabbit meat [2, 4]: 0.13%
Polyunsaturated fatty acid (PUFA) total [2, 4]: 36.07ª %
SFA 9Methyl C14:0 in rabbit meat [2, 4]: 0.07%
SFA 12Methyl C13:0 in rabbit meat [2, 4]: 0.14^b %
SFA 13Methyl C14:0 in rabbit meat [2, 4]: 0.13ª %
SFA 14Methyl C15:0 in rabbit meat [2, 4]: 0.26%
SFA 14methyl C16:0 in rabbit meat [2, 4]: 0.10%
SFA C10:0 in rabbit meat [2, 4]: 0.25%
SFA C12:0 in rabbit meat [2, 4]: 0.92^b %
SFA C14:0 in rabbit meat [2, 4]: 2.14%
SFA C15:0 in rabbit meat [2, 4]: 0.53%
SFA C16:0 in rabbit meat [2, 4]: 26.52^b %
SFA C17:0 in rabbit meat [2, 4]: 0.52ª %
SFA C18:0 in rabbit meat [2, 4]: 5.11^b %
SFA C20:0 in rabbit meat [2, 4]: 0.11%
Saturated fatty acid (SFA) total [2, 4]: 36.75^b %
Unsaturated fatty acid (UFA) total [2, 4]: 63.20ª %
MUFA C16:1n7c in rabbit meat [2, 5]: 1.89%
MUFA C16:1n9c in rabbit meat [2, 5]: 0.51%
MUFA C17:1n7c in rabbit meat [2, 5]: 0.22%
MUFA C18:1n9c in rabbit meat [2, 5]: 20.60^b %
MUFA C18:1n9t in rabbit meat [2, 5]: 1.08^b %
MUFA C20:1n9t in rabbit meat [2, 5]: 0.16^b %
Monounsaturated fatty acid (MUFA) total [2, 5]: 24.45%
PUFA C16:3n4c in rabbit meat [2, 5]: 0.13^b %
PUFA C18:2n6c (linoleic acid) in rabbit meat [2, 5]: 28.40^b %
PUFA C20:2n6c in rabbit meat [2, 5]: 0.44^b %
PUFA C20:3n6c in rabbit meat [2, 5]: 0.15%
PUFA C20:4n6c (arachidonic acid) in rabbit meat [2, 5]: 1.61^b %
PUFA C22:4n6c in rabbit meat [2, 5]: 0.39%
Polyunsaturated fatty acid (PUFA) total [2, 5]: 31.12^b %
SFA 9Methyl C14:0 in rabbit meat [2, 5]: 0.06%
SFA 12Methyl C13:0 in rabbit meat [2, 5]: 0.30^a %
SFA 13Methyl C14:0 in rabbit meat [2, 5]: 0.12ª %
SFA 14Methyl C15:0 in rabbit meat [2, 5]: 0.27%
SFA 14methyl C16:0 in rabbit meat [2, 5]: 0.11%
SFA C10:0 in rabbit meat [2, 5]: 0.20%
SFA C12:0 in rabbit meat [2, 5]: 1.71ª %
SFA C14:0 in rabbit meat [2, 5]: 2.16%
SFA C15:0 in rabbit meat [2, 5]: 0.52%
SFA C16:0 in rabbit meat [2, 5]: 30.16ª %
SFA C17:0 in rabbit meat [2, 5]: 0.46^b %
SFA C18:0 in rabbit meat [2, 5]: 8.22ª %
SFA C20:0 in rabbit meat [2, 5]: 0.11%
Saturated fatty acid (SFA) total [2, 5]: 44.48ª %
Unsaturated fatty acid (UFA) total [2, 5]: 55.57^b %
brightness L* of rabbit meat [3, 6]: increase
redness α* of rabbit meat [3, 6]: no effect
activity of the duodenal amylase [3, 7]: decrease
digestibility of dry matter and ether extract in diet [3, 7]: decrease
weight gain of animals [3, 7]: slow weight gain

Reference: patent US20230329282A1, “Application of 1-Deoxynojirimycin in Feed for Improving Nutritional Value and Sensory Effect of Rabbit Meat Products” (priority 2023, published 2023)
